# “Also recorded” adds a separate entry of the source.
# Legend:
# wildtype STAT1 protein = target: T1, wildtype STAT1 protein (Homo sapiens, UniProt P42224); assay: Fluorescence polarization competitive binding, STAT1; conditions: FP; read-out: IC50, disruption of phosphopeptide-STAT1 complex
# T1 sequence (P42224 1-750): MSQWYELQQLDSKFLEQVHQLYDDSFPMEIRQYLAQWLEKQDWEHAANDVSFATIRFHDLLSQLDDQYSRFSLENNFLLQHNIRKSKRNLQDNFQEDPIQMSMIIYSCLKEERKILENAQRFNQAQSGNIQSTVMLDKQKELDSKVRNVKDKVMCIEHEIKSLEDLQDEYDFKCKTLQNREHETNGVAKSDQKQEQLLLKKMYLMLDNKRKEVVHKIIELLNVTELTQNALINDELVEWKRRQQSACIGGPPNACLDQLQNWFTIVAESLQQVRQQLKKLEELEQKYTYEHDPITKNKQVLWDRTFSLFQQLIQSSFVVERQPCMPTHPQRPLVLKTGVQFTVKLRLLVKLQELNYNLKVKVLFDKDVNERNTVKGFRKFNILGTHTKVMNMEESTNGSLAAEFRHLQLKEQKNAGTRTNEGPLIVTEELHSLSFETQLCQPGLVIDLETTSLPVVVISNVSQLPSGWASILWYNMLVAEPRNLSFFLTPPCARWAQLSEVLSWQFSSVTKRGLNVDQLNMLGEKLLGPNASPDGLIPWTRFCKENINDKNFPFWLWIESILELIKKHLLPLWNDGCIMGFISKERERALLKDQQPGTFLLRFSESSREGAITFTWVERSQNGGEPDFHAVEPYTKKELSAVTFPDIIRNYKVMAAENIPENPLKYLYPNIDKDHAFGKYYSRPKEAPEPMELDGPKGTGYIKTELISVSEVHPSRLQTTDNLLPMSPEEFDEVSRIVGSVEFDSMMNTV
# [1] = system: MV-4;11 (FLT3-ITD) AML cells; assay: CellTiter-Blue cell viability assay, MV-4;11; assay type: cell-based, Human
# Protocol: (§1) Human erythroleukemia K562 and MV-4-11 cells were cultured in Iscove's modified dulbecco's medium (Gibco) supplemented with 10% FBS (Sigma). Breast carcinoma lines MDA-MB-231 and MDA-MB-468 were grown in dulbecco's modified eagles medium (DMEM) supplemented with 10% FBS (sigma). For downregulation of STAT5 activity, cells were treated with 5, 10, 15, 20 μM of 13a-d STAT5 compounds, for 3 h and 5 h time points. As a control, cells were treated with the DMSO alone.
# Cell viability was assessed following treatment at various concentrations of inhibitor (0.78-50 μM) using a CellTiter-Blue cell viability assay (72 hours).
# [2] = system: MDA-MB-231 breast cancer cells; assay: Cell viability, MDA-MB-231; assay type: cell-based
# Protocol: Breast carcinoma lines MDA-MB-231 and MDA-MB-468 were grown in dulbecco's modified eagles medium (DMEM) supplemented with 10% FBS (sigma). […] As a control, cells were treated with the DMSO alone.
# [3] = system: healthy human CD34+ umbilical cord cells; assay: Cell viability, healthy CD34+ umbilical cord cells; assay type: cell-based
# [4] = system: phosphorylated STAT5 (Y694); assay: Western blotting of pSTAT5 in K562 cells; assay type: cell-based, Human; conditions: K562, 5 hrs
# Protocol: as §1
# [5] = system: phosphorylated STAT3 (Tyr 705); assay: Western blotting of pSTAT3 in MDA-MB-231 cells; assay type: cell-based
# Protocol: Proteins were extracted using RIPA buffer with protease and phosphates inhibitors and a careful protein determination were preformed (BCA protein assay kit, Pierce). In each assay, 30 μg of clarified whole cell extract were resolved on a 10% polyacrylamide-SDS gel and transferred to a nitrocellulose membrane (Bio-Rad). The membranes were blocked with 5% nonfat milk for at least 1 h followed by an overnight incubation in primary antibody.
# Immunodetection was performed using antibodies against the total STAT5 (Cell Signaling #9363), phosphorylated STAT5 (Tyr 694) (Cell Signaling, cat. #9359), total STAT3 (Cell Signaling #4904) and phosphorylated STAT3 (Tyr 705) (Cell Signaling #9661), Cleaved Caspase-3 (Asp175) (Cell Signaling #9661), Cleaved-Parp-1 (ab72805) Anti-Cyclin D1 (Abcam ab16663), Anti-Cyclin-D2 (Abcam ab94685), Anti-c-Myc (Abcam ab32072) and β-actin (Cell Signaling #3700) as a loading control, followed by fluorescent conjugated goat secondary antibodies Alexa Fluor 488 (Cell Signaling #4408) and Alexa Fluor 647.
# (§5) Downstream of STAT5, modulation of the STAT5 transcriptional targets, MCL-1, CYCLIND1/D2 and MYC was assessed.
# pSTAT5 = assay: Western blotting of pSTAT5 in MV-4;11 cells; assay type: cell-based, Human
# Description: (§2) Correspondingly, western blot analysis for protein levels of pSTAT5 and downstream target gene expression were also investigated within the AML cell line, MV-4; 11.
# MCL-1, cleaved PARP-1 = assay: Western blotting of apoptosis and MCL-1 in MV-4;11 cells; assay type: cell-based, Human
# Description: as §2
# [6] = assay type: in vitro ADME; conditions: mouse
# Description: Within these studies, a series of phase I and phase II metabolites within mouse hepatocytes were identified. […] Each peak from the initial mass spectrum is rerun through a tandem mass spec to identify the major peak along with the corresponding fractionation patterns of that metabolite. […] Peak 2 on the other hand is a combination of both phase I and phase II metabolism. […] Most likely, we deduced the acetylation is occurring at the acid position of the salicylic acid moiety, FIG. 11.
# Based on the fragmentation pattern, the most likely site of oxidation could reside on the glycine core or the benzyl ring of the salicylic acid, FIG. 12.
# [7] = Metabolic stability in pooled human liver s9 fractions with NADPH; assay type: in vitro ADME; conditions: 60 min
# Protocol: (§3) For the pooled s9 fractions, solution of the s9 fraction along with NADPH was added to each well. […] The positive control used in the assay was Verapamil, a known drug to be metabolized by liver enzymes. The reaction was started by the addition of 13a and performed in duplicate. Aliquots were taken from the reaction solution at 0 min and 60 min. The reaction was stopped by the addition of cold methanol. Samples were then analyzed through LC-MS/MS to determine the metabolic profile.
# [8] = Metabolic stability in pooled mouse liver s9 fractions with NADPH; assay type: in vitro ADME; conditions: 60 min
# Protocol: as §3
# [9] = Metabolic stability in human hepatocytes; assay type: in vitro ADME; conditions: 120 min
# Protocol: (§4) 13a was then evaluated within intact human and mouse hepatocytes. Like the s9 fractions, Verapamil was used as a positive control in the assay. Cryopreserved hepatocytes were thawed and plated to a working cell density of 0.5×10^6 viable cell/mL.
# [10] = Metabolic stability in mouse hepatocytes; assay type: in vitro ADME; conditions: 120 min
# Protocol: as §4
# [11] = system: MCL-1, MYC, cleaved PARP-1, Caspase-3; assay: Western blotting of apoptosis markers and STAT5 transcriptional targets in K562 cells
# Protocol: Proteins were extracted using RIPA buffer with protease and phosphates inhibitors and a careful protein determination were preformed (BCA protein assay kit, Pierce). […] The membranes were blocked with 5% nonfat milk for at least 1 h followed by an overnight incubation in primary antibody.
# as §5
smiles,measurement,setting,value
"CC(C)(C)c1cc(CN(C(=O)CN(Cc2ccc(Cl)cc2)S(=O)(=O)c2c(F)c(F)c(F)c(F)c2F)c2ccc(C(=O)O)c(O)c2)cc(C(C)(C)C)c1 [Compound 13a, 4-(2-((N-(4-chlorobenzyl)-2,3,4,5,6-pentafluorophenyl)sulfonamido)-N-(3,5-di-tert-butylbenzyl)acetamido)-2-hydroxybenzoic Acid]",IC50,wildtype STAT1 protein,> 150 µM
same,effect on MV-4;11 cells,[1]; 10 μM,abolished
same,IC50,"[1]; Homo sapiens, MV4-11, 72 hours, CellTiter-Blue",3.5 µM
same,less cytotoxic in MDA-MB-231 than in high pSTAT5 leukemic cell line,[2],3 fold
same,effect on cell viability of healthy CD34+ cells,[3]; 10 μM,little reduction in cell viability; also recorded: little effect
same,difference in sensitivity CD34+ vs MV-4;11 cells,[3]; therapeutic window,approximate order of magnitude difference
same,levels of phosphorylated STAT5 (Y694),[4],decreased pSTAT5 in a dose dependant manner and ablated pSTAT5 above 10 μM
same,total STAT5 concentration or cleavable PARP-1,[4],no change
same,pSTAT3 inhibition,"[5]; MDA-MB-231, doses corresponding to STAT5 inhibition",not inhibited
same,total STAT3 and STAT5 protein levels,[5]; MDA-MB-231 and leukemic cell line,neither total STAT3 or STAT5 protein levels were affected
same,pSTAT5 level,"pSTAT5; MV-4;11, 5 h",dose-dependent decrease
same,pSTAT5 phosphorylation,"pSTAT5; MV-4;11, 24 h, 10 μM",complete ablation
same,downstream target MCL-1,"MCL-1, cleaved PARP-1; MV-4;11, 10 μM, 24 h",complete knockdown
same,apoptosis,"MCL-1, cleaved PARP-1; MV-4;11, 24 h",initiation of apoptosis was observed
same,intact compound recovered,[6]; 240 min,majority of intact 13a is recovered
same,"glutathione derivatives, collective share of metabolites recovered",[6]; 4 h,10%
same,parent compound recoverable,[6]; 4 h,> 85%
same,recovered in human liver s9 (HLS9) fractions,[7],59.82%
same,recovered in mouse liver s9 (MMLS9) fractions,[8],6.96%
same,recovered in human hepatocytes,[9],68.56%
same,recovered in boiled human hepatocytes (negative control),[9]; boiled hepatocytes,~85%
same,recovered in mouse hepatocytes,[10],53.37%
same,recovered in boiled mouse hepatocytes (negative control),[10]; boiled hepatocytes,~85%
same,MYC (c-MYC) expression,"[11]; K562, 5 hrs",dose-dependant decreases; also recorded: dose-dependent decreases
same,MCL-1 expression,"[11]; K562, 24 hrs, 15 μM",complete knockdown
same,"apoptosis (cleaved PARP-1, Caspase-3)","[11]; K562, 24 hrs, 15 μM",undergo cell death
